Test results reported in patent US8178530B2, “Imidazolopyrazine compounds useful for the treatment of degenerative and inflammatory diseases” (Janssen Pharmaceutica NV, priority 2006, dated 2012).

Key:
MAPKAPK5 = biological target: T1, MAPKAPK5 (Homo sapiens, UniProt Q8IW41); assay: MAPKAP-K5 assay (FlashPlate, 33P-ATP); format: biochemical; details: 0.6 μM ATP, 30 minutes at room temperature
T1 construct: 1 mU MAPKAP-K5
T1 sequence (Q8IW41 1-473): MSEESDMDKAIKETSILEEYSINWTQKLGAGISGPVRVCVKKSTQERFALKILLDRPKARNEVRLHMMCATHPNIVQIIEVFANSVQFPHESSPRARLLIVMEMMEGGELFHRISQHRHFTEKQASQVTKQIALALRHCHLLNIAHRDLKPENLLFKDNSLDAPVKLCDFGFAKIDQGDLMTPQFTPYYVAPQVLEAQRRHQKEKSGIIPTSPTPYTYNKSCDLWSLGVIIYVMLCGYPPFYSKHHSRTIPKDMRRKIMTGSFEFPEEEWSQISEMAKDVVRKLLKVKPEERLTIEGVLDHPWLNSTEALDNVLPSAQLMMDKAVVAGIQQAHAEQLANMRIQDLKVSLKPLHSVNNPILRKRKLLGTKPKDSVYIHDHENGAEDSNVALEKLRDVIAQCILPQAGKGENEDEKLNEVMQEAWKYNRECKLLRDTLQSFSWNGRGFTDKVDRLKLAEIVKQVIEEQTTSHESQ
Procedure: 3 μM MAPKAP-K5 peptide substrate

[1] = test system: TNFα release by human PBMCs; assay: Cytokine release by LPS-stimulated human PBMCs (TNFα ELISA); format: cell-based; details: PBMC, LPS 1 μg/mL, 24 hr
Procedure, shortened: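 Human PBMCs at 2.5E6 cells/mL preincubated 1 h with compound (0.2% DMSO final), then stimulated with 1 μg/mL LPS (E. coli 026:B6) for 24 h. Supernatant TNFα measured by chemiluminescent sandwich ELISA; percent inhibition normalised to LPS/vehicle and unstimulated controls, EC50 fitted from 8-point 1/3 dilutions.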

Row | SMILES | IC50 (MAPKAPK5) [nM] | EC50 [1] [nM]
1 | NC(=O)c1ccc(-c2cnc(Nc3ccc(N4CCN(CCO)CC4)cc3)c3nccn23)cc1 [Compound 156] | 501 to 1000 | > 1000
2 | CN1CCN(c2ccc(Nc3ncc(-c4cscn4)n4ccnc34)cc2)CC1 [Compound 138] | > 1000 | 101 to 500
3 | CCN(CC)CCNS(=O)(=O)c1ccc(Nc2ncc(-c3ccc(C(N)=O)cc3)n3ccnc23)cc1 [Compound 98] | > 1000 | > 1000
4 | NC(=O)c1ccc(-c2cnc(Nc3ccc(OCCN4CCOCC4)cc3)c3nccn23)cc1F [Compound 146] | > 1000 | > 1000
5 | CCN(CC)CCNC(=O)c1ccc(Nc2ncc(-c3cn[nH]c3)n3ccnc23)cc1F [Compound 82] | 501 to 1000 | > 1000
6 | CN1CCC(Oc2ccc(Nc3ncc(-c4ccc(C(N)=O)c(F)c4)n4ccnc34)cc2)CC1 [Compound 149] | > 1000 | > 1000
7 | O=C(NCCN1CCOCC1)c1ccc(Nc2ncc(-c3cn[nH]c3)n3ccnc23)cc1 [Compound 53] | 101 to 500 | > 1000
8 | CN1CCN(c2ccc(Nc3ncc(-c4ccc(C(N)=O)cc4)n4ccnc34)cc2)CC1 [Compound 143] | > 1000 | > 1000
9 | Cc1cc(C(N)=O)ccc1-c1cnc(Nc2ccc(N3CCN(C)CC3)cc2)c2nccn12 [Compound 120] | > 1000 | > 1000
